Two compounds from US7507860B2 (Pfizer Inc., priority 2004, dated 2009) can be followed below.

The target of test [1] is T1, human androgen receptor (hAR) (Homo sapiens, UniProt P10275).
T1 construct: made in house; host or cells: baculovirus/Sf9 insect cells (crude extract)
T1 sequence (P10275 1-920): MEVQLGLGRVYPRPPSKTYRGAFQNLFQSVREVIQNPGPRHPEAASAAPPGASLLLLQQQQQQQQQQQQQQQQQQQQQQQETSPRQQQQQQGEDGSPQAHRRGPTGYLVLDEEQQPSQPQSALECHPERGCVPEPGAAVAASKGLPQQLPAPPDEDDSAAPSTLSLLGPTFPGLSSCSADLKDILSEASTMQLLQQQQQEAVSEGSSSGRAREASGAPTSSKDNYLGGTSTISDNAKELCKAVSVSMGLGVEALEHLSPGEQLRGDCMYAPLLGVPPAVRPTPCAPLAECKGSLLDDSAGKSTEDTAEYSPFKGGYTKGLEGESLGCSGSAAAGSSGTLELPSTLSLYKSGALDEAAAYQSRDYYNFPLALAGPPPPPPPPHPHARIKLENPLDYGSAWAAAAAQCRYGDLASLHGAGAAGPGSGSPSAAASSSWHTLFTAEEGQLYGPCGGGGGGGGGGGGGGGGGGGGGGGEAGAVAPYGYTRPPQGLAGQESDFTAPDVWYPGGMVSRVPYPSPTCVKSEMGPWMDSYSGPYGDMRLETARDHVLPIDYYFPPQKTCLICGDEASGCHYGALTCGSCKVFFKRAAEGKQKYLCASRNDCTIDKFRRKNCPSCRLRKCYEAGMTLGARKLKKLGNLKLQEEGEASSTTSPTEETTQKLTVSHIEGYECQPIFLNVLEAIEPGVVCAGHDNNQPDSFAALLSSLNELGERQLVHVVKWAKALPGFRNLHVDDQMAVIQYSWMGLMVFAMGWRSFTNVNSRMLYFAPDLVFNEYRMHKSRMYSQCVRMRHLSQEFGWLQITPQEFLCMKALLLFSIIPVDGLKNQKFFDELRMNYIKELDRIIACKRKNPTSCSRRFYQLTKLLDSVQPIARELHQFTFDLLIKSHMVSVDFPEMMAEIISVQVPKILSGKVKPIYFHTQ
In words: Competitive binding analysis on baculovirus/Sf9 generated hAR extracts with 3H-DHT tracer. To be noted: AR Binding IC50 (nM), hAR extract, 1 nM 3H-DHT, one hour at 4° C; mean of multiple tests. The essentials:
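Baculovirus/Sf9-expressed hAR extract incubated with hydroxylapatite, 1 nM 3H-DHT and decreasing compound concentrations for 1 h at 4 °C, then washed three times to remove unbound tracer. Bound 3H-DHT compared with no-competitor maximum; affinity given as concentration inhibiting half of maximum binding, mean of multiple tests.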

The target of test [2] is T2, androgen receptor (Homo sapiens, UniProt P10275).
T2 sequence (P10275 1-920 Q868H): T1 sequence (P10275 1-920) with Q868H
In words: AR antagonist cell assay (MDA-MB453-MMTV clone 54-19 luciferase reporter, 100 pM DHT). In kind it is cell-based. To be noted: MDA-MB453-MMTV clone 54-19, inhibition of 100 pM DHT induction, 17 hr; mean of multiple tests; read-out: AR Cell IC50. The essentials:
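MDA-MB453 cells stably carrying an MMTV-ARE firefly luciferase reporter were plated overnight at 10,000/well in phenol-red-free, charcoal-stripped serum medium. Cells were stimulated with 100 pM DHT (final) for 17 hr at 37 °C, and AR antagonism was read as luciferase signal; values are means of multiple tests.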
In general terms: In a reporter assay the amount or activity of a reporter protein is the signal.

Numbering of substitutions follows the chain as printed.

The term IC50 denotes the concentration needed to halve the response being measured. Take `CCCC(Oc1ccc(C#N)c(C(F)(F)F)c1)C(=O)NCc1ccccc1` (stereo not shown) [Example 4, 2-(4-Cyano-3-trifluoromethyl-phenoxy)-pentanoic acid benzylamide]: the IC50 in test [1] came to 445 nM; in test [2] it was 57 nM.
On to `CC(C)CC(Oc1ccc(C#N)c(C(F)(F)F)c1)C(=O)NCc1ccccc1` (stereo not shown) [Example 1, 2-(4-Cyano-3-trifluoromethyl-phenoxy)-4-methyl-pentanoic acid benzylamide], for which the IC50 in test [1] turned out to be 95 nM; in test [2], 201 nM.
